From patent publication US20090104119A1, “Dendrimer Based Compositions And Methods Of Using The Same” (priority 2004, published 2009)

Key:
s.c. human KB xenografts = experiment: Targeted drug delivery, tumor growth and survival in SCID mice with KB xenografts; format: in vivo, SCID CB-17 mice; settings: for effect on tumor growth: first trial
Procedure: Recipient animal and tumor model.
(§1) Delivery of targeted nanoparticle therapeutic. Twice weekly, SCID mice with s.c. KB xenografts, starting on day 4 after tumor implantation, received via the tail vein an injection of either targeted or nontargeted conjugate containing methotrexate, a conjugate without methotrexate, free methotrexate, or saline as a control. The compounds were delivered in a 0.2 mL volume of saline per 20 g of mouse. The single dose of methotrexate delivered each time equaled 0.33 mg/kg. The higher doses of 1.67 and 3.33 mg/kg free methotrexate were also tested. The conjugates were delivered at equimolar concentration of methotrexate calculated based on the number of methotrexate molecules present in a nanoparticle. The conjugate without methotrexate was delivered at equimolar concentration of dendrimer. In the initial trial, six groups of mice with five mice in each group received up to 15 injections. In the follow-up trial, mice received up to 28 injections dependent on their survival. The body weights of the mice were monitored throughout the experiment as an indication of adverse effects of the drug. Histopathology of multiple organs was done at the termination of each trial and each time mouse had to be euthanized due to toxic effects or tumor burden. Tissues from lung, heart, liver, pancreas, spleen, kidney, and tumor were analyzed. Additionally, cells were isolated from tumors, stained with targeted fluorescein-labeled conjugate, and tested for the presence of folic acid receptors using flow cytometer.
Targeted drug delivery to tumor cells through the folate receptor. The efficacy of different doses of conjugates was tested on SCID CB-17 mice bearing s.c. human KB xenografts and was compared with equivalent and higher doses of free methotrexate. Mice were maintained on the folic acid-deficient diet for 3 weeks before injection of the KB tumor cells to achieve circulating levels of folic acid that approach those in human serum and to prevent down-regulation of folate receptors on tumor xenografts (See, Mathias et al., J Nucl Med 29, 1579 (1998)). Six groups of SCID mice with five mice in each group were injected s.c. on one flank with 5×10^6 KB cells in 0.2 mL PBS suspension. The highest total dose of G5-FI-FA-MTX therapeutic used equals 55.0 mg/kg and is equivalent to a 5.0 mg/kg total cumulative dose of free methotrexate (FIG. 29). The therapeutic dose of the conjugate was compared with three cumulative doses of free methotrexate equivalent to 33.3, 21.7, and 5.0 mg/kg accumulated in 10 to 15 injections based on mouse survival. Saline and the conjugate without methotrexate (G5-FI-FA) were used as controls.

KB cells [1] = experiment: Inhibition of cell growth by total cell protein
Procedure: Cell culture and treatment. KB cells were maintained in folate-free medium containing 10% serum (See, e.g., Quintana et al, Pharm. Res. 19, 1310 (2002)) to provide extracellular FA similar to that found in human serum. Cells were plated in 12-well plates for uptake studies, in 24-well plates for cell growth analysis, and in 96-well plates for XTT assay. Cells were rinsed with FA-free medium containing dialyzed serum and incubated at 37° C. with dendrimer-drug conjugates for the indicated time periods and concentrations. KB cells were also maintained in RPMI medium containing 2 μM FA to obtain cells which express low FAR.
Evaluation of dendrimer cytotoxicity. Cell growth was determined by assay of the total protein in lysates of treated cells using a bicinchoninic acid reagent (PIERCE, and by XTT assay, using a kit from Roche.
Time course and dose dependent inhibition of cell growth. Previous studies have shown that MTX-induced cytotoxicity is detectable in vitro only if the medium is completely deprived of FA (See, e.g., Sobrero & Bertino, Int. J. Cell Cloning 4, 51 (1986)). The effect of the trifunctional dendrimers on cell growth was tested in cells incubated in a FA-deficient medium. Cells were treated with 300 nM conjugates (equivalent of 1500 nM MTX) or 1500 nM free MTX for 1-4 days, and cell proliferation was determined by estimation of cellular protein content. Cells were treated for 2 days with different concentrations of the conjugates or free MTX (the conjugate concentration is given as MTX equivalents, with 5 MTX per dendrimer molecule). KB cells which express high and low FAR were incubated with 30 nM of the dendrimers for 1 hr at 37° C., rinsed, and the fluorescence of cells was determined by flow cytometric analysis (See. e.g., FIG. 21, left panel).
KB cells were treated with 150 or 500 nM MTX in the presence or absence of equimolar concentrations of free FA for 24 h. […] The cells were rinsed to remove the drugs and incubated with fresh medium for an additional 6 d, and total cell protein was determined.

KB cells [2] = experiment: Inhibition of cell growth by XTT assay; format: cell-based, human; settings: 1, 2 or 3 days
Procedure: Cell culture and treatment.
Evaluation of dendrimer cytotoxicity.
Because the binding of the conjugate to KB cells reaches maximal uptake within 1 h (Quintana et al, 2002. Pharmaceutical Research 19: 1310-1316.), the effect of the G5-FI-FA-MTX on cell growth was initially tested by pre-incubation of cells with the conjugate for 1 h, followed by incubation in a drug-free medium for 5 d. […] When the cells were pre-incubated with dendrimers for 4 h, there was a modest decrease of about 10% in cell growth as determined by XTT assay. The cytotoxicity measurements were therefore done by incubation with the dendrimer for a minimum of 24 h, a pre-incubation time period shown to induce significant cytotoxicity.
The inhibition of cell growth induced by the conjugates was also tested by XTT assay which is based on the conversion of XTT to formazan by the active mitochondria of live cells (See, e.g., Roehm et al, J Immunol Methods 142, 257 (1991)).
As free FA blocks the uptake of the dendrimers as well as rescues cells from MTX-induced cytotoxicity, the effect of pre-incubation of cells with excess FA on the anti-proliferative effect of G5-FITC-FA-MTX was tested. KB cells were exposed to different concentrations of the conjugate or free MTX for 24 h in the absence or presence of 50 μM FA. The incubation medium was removed, the cells were rinsed and incubated with fresh medium for 5 additional days in the absence of the drugs, and the XTT assay was performed (See, e.g., FIG. 24, □, ▪, represents cells treated with MTX; Δ, ▴, represents cells treated with G5-FITC-FA-MTX).
The anti-proliferative effect of the MTX-conjugates was compared to conjugates that lacked either the FA or the FITC molecule. KB cells were incubated with 30 nM of the conjugates (=150 nM effective MTX concentration) for 24 h and the incubation medium was removed. The cells were rinsed and incubated for an additional 5 d in fresh medium in the absence of the drugs, and the XTT assay was performed.

[3] = Toxicity of dendrimer conjugates and free methotrexate in mice (body weight, histopathology); format: in vivo
Procedure: as §1
Toxicity of dendrimer conjugates. […] No gross toxicity, either acutely or chronically up to 99 days, was observed regardless of whether the dendrimer conjugate contained methotrexate. The weight was monitored throughout the experiment and no loss of weight was observed; in fact, the animals gained weight. At each time point, a gross examination and histopathology of the liver, spleen, kidney, lung, and heart were done. No morphologic abnormalities were observed on the histopathology examination.
The remaining experimental groups had very uniform body weight fluctuations nonindicative of toxicity when compared with control groups with saline or conjugate without methotrexate.

KB tumor = experiment: Biodistribution of fluorescent dendrimer conjugates in tumor (confocal microscopy, flow cytometry); format: in vivo, mice; settings: single-cell suspension from tumors, versus nontargeted
Procedure: Biodistribution of fluorescent dendrimer conjugates. […] Flow cytometry analysis was done with single-cell suspension isolated from tumor. Tumor was crushed, cell suspension filtered through 70 μm nylon mesh (Becton Dickinson, Franklin Lakes, N.J.), and washed with in PBS. Samples were analyzed using an EPICS XL flow cytometer (Coulter, Miami, Fla.). As determined by prior propidium iodine staining, only live cells were gated for analysis. Data were reported as the mean channel fluorescence of the cell population.
For confocal microscope imaging, tissue was dissected, embedded in OCT, and frozen in 2-methyl-butane in a dry ice bath. Sections (15 μm) were cut on a cryostat, thaw mounted onto slides, and stored at −80° C. until stained. After staining, the slides were fixed in 4% paraformaldehyde, rinsed in phosphate buffer (0.1 mol/L; pH 7.2), and mounted in Prolong. The images were acquired using a Zeiss 510 metalaser scanning confocal microscope equipped with a ×40 Plan-Apo 1.2 numerical aperture (water immersion) objective with a correction collar. The confocal image was recorded as 512×512×48 pixels with a scale of 0.45×0.45×0.37 μm per pixel. Each image cube was optically cut into 48 sections, and the sections that cut through the nucleus and cytoplasm were presented.
Targeting and internalization of fluorescent dendrimer conjugate. […]

Compound | effect on tumor growth (s.c. human KB xenografts; up to 15 injections, cumulative 5.0 mg/kg methotrexate equivalents or equimolar dendrimer) | effect on tumor growth (s.c. human KB xenografts; cumulative 33.3 and 21.7 mg/kg) | day by which all mice died (s.c. human KB xenografts; second 99-day trial) [days] | survivors at the termination of the trial (s.c. human KB xenografts; second 99-day trial) | inhibition of cell growth (FIGS. 21 and 22) (KB cells [1]; FA-deficient medium, 1-4 days, different concentrations) | growth inhibition, free MTX versus equimolar MTX in G5-FITC-FA-MTX (KB cells [1]; below 1 μM) | inhibition of cell growth, XTT (KB cells [2]) | time at which doses became lethal ([3]; cumulative doses 33.3 and 21.7 mg/kg) [days] | histopathology of the liver ([3]; mouse, in vivo) | toxicity ([3]; total accumulated dose equivalent to 5.0 mg/kg free methotrexate) | mean channel fluorescence of tumor cells, flow cytometry (KB tumor)
CN(Cc1cnc2nc(N)nc(N)c2n1)c1ccc(C(=O)N[C@@H](CCC(=O)O)C(=O)O)cc1 [MTX, Methotrexate, reference compound] | no effect on tumor growth | affecting tumor growth | ≤ 66 | no mice surviving | inhibited cell growth in a time- and dose-dependent fashion | higher | time-dependent cytotoxicity | 32 to 36 | advanced liver lesions, collections of inflammatory cells, and periportal inflammation | nor free methotrexate at the same dose were toxic | –
G5-(Ac)82-(6-TAMRA)3-(FA)4 [G5-6T-FA] | – | – | – | – | – | – | – | – | – | – | higher
